How the values were obtained:
[1] = Measuring stability of water solutions (temperature at which the solution remained fluid after 24 hours and seeding); type: physicochemical; settings: after 24 hours and seeding with seed crystal
Method: According to the invention there is therefore provided a composition consisting essentially of water and the tetramethylammonium salt of 1,2-benzisothiazolin-3-one having a freezing point of less than about 0° C., such as less than about −1° C. for example less than about −3° C., about −5° C., about −10° C., about −15° C., about −20° C., about −25° C. or −30° C. As used herein the expression “freezing point” means that the composition is fluid after 24 hours and seeded with solid tetramethylammonium salt of 1,2-benzisothiazolin-3-one.
A series of solutions of tetramethylammonium BIT in distilled water were prepared. In series of experiments the temperature at which the solution remained fluid after 24 hours and seeding with a seed crystal of tetramethylammonium BIT was measured.

[2] = 59 wt % tetramethylammonium BIT (40 wt % BIT) in water; after storage for 24 hours and seeding; cited from earlier work

## C[N+](C)(C)C.O=c1[n-]sc2ccccc12 [tetramethylammonium BIT, tetramethylammonium salt of 1,2-benzisothiazolin-3-one]
[1]; 20.3 % BIT concn in distilled water
  Temp at which the solution remained fluid: −5 °C
[1]; 25.3 % BIT concn in distilled water
  Temp at which the solution remained fluid: −8 °C
[1]; 30.4 % BIT concn in distilled water
  Temp at which the solution remained fluid: −13 °C
[1]; 35.6 % BIT concn in distilled water
  Temp at which the solution remained fluid: −20 °C
[1]; 39.3 % BIT concn in distilled water
  Temp at which the solution remained fluid: −32 °C
[1]; 42.6 % BIT concn in distilled water
  Temp at which the solution remained fluid: −10 °C
[1]; 45 % BIT concn in distilled water
  Temp at which the solution remained fluid: 5 °C
[2]
  freezing point of lowest freezing point water solution: 3 °C

From patent publication US8466184B2, “Biocide” (Titan Chemicals Limited, priority 2011, dated 2013)
